According to patent US20110144345A1, “SULFOXYIMINO-SUBSTITUTED BENZOYL DERIVATIVE AND HERBICIDE” (NIPPON SODA CO., LTD., priority 2008, published 2011):

Columns and labels:
Scirpus juncoides = assay: Paddy pot test, herbicidal effect on Scirpus juncoides; assay type: in vivo; parameters: scale not given here; conditions: Screening, 63 g/ha, examined after 3 weeks
Experimental: (§1) Plastic pots having an area of 100 cm^2 and a depth of 10 cm were filled with paddy soil which is puddled by adding water, and seeds of Echinochloa crus-galli and Scirpus juncoides were planted in the pots. After seeding, rice plants at the 2.5-leaf stage were transplanted and the pots were filled with water. The rice plants were grown in a greenhouse. […] The herbicidal effects and harmful effects on the rice plants were examined after 3 weeks. Herbicidal effects were examined according to the examination criteria described below and were represented by the herbicidal index. [table] […] [formula]

rice plants = assay: Paddy pot test, harmful effects on transplanted rice plants; assay type: in vivo; parameters: scale not given here; conditions: Screening, 63 g/ha, applied at Echinochloa crus-galli 1.5-leaf stage, examined after 3 weeks
Experimental: as §1

Echinochloa crus-galli = assay: Paddy pot test, herbicidal effect on Echinochloa crus-galli; assay type: in vivo; parameters: scale not given here; conditions: Screening, 63 g/ha, applied at 1.5-leaf stage, examined after 3 weeks
Experimental: as §1

SMILES | melting point [°C] | Scripus juncoides (herbicidal index) (Scirpus juncoides) | Rice (harmful effects on the rice plants, index) (rice plants) | Echinochloa crus-galli (herbicidal index) (Echinochloa crus-galli)
COc1ccc(C(=O)C2=C(O)CCCC2=O)c(Cl)c1N=S1(=O)CCCC1 [Example 127] | 153 to 155 | 8 | 0 | 8
Cn1ncc(C(=O)c2cccc(N=S3(=O)CCCCC3)c2Br)c1O [Example 196] | 177 to 179 | 8 | 0 | 6
COc1ccc(C(=O)c2cnn(C)c2O)c(F)c1N=S1(=O)CCCCC1 [Example 112] | 107 to 109 | 8 | 0 | 8
COc1c(N=S2(=O)CCCCC2)cccc1C(=O)c1cnn(C)c1O [Example 131] | 121 to 123 | 8 | 0 | 6
COc1c(C(=O)c2cnn(C)c2O)ccc(C)c1N=S1(=O)CCCCC1 [Example 135] | 85 to 87 | 7 | 0 | 5
COc1ccc(C(=O)c2cnn(C)c2O)c(OC)c1N=S1(=O)CCOCC1 [Example 133] | 72 to 74 | 7 | 0 | 6
O=C1CCCC(O)=C1C(=O)c1ccc(OC(F)F)c(N=S2(=O)CCCCC2)c1Cl [Example 179] | 125 to 127 | 7 | 1 | 7
CCS(=O)(CC)=Nc1c(OC)ccc(C(=O)c2cnn(C)c2O)c1Cl [Example 247] | 165 to 168 | 9 | 0 | 10
CCn1ncc(C(=O)c2ccc(OC)c(N=S3(=O)CCCC3)c2Cl)c1O [Example 128] | 171 to 173 | 8 | 0 | 10
CC(C)c1ccc(C(=O)c2cnn(C)c2O)c(Cl)c1N=S1(=O)CCCCC1 [Example 208] | 102 to 104 | 7 | 0 | 8
CCn1ncc(C(=O)c2ccc(C#N)c(N=S3(=O)CCCCC3)c2Cl)c1O [Example 187] | 159 to 161 | 5 | 0 | 10
COc1ccc(C(=O)C2=C(O)CCCC2=O)c(Cl)c1N=S(C)(C)=O [Example 149] | 150 to 152 | 6 | 0 | 5
COc1ccc(C(=O)c2cnn(C)c2OC(=O)c2ccc([N+](=O)[O-])cc2)c(Cl)c1N=S1(=O)CCCCC1 [Example 139] | 151 to 154 | 8 | 0 | 10
COc1ccc(C(=O)c2cnn(C)c2O)c(OC)c1N=S1(=O)CCCC1 [Example 198] | 151 to 153 | 7 | 0 | 5
CSC(=O)Oc1c(C(=O)c2cccc(N=S3(=O)CCCCC3)c2C)cnn1C [Example 193] | 149 to 151 | 7 | 0 | 6
COc1ccc(C(=O)c2cnn(C)c2OC(=O)SC)c(Cl)c1N=S1(=O)CCCCC1 [Example 154] | 163 to 165 | 8 | 0 | 10
Cc1ccc(C(=O)c2c(C)nn(C)c2O)c(C)c1N=S1(=O)CCCCC1 [Example 109] | 122 to 124 | 8 | 0 | 7

SMILES | melting point [°C] | Scripus juncoides (herbicidal index) (Scirpus juncoides) | Rice (harmful effects on the rice plants, index) (rice plants) | Echinochloa crus-galli (herbicidal index) (Echinochloa crus-galli)
COc1ccc(C(=O)c2cnn(C)c2O)c(Cl)c1N=S(C)(C)=O [Example 150] | 164 to 166 | 8 | 0 | 5
COc1ccc(C(=O)c2c(C)nn(C)c2O)c(Cl)c1N=S1(=O)CCCCC1 [Example 250] | 138 to 140 | 8 | 0 | 7
CSC(=O)Oc1c(C(=O)c2ccc(OC(F)F)c(N=S3(=O)CCCCC3)c2Cl)cnn1C [Example 185] | – | 7 | 0 | 10
COc1ccc(C(=O)c2cnn(C)c2O)c(Cl)c1N=S(C)(=O)Cc1ccccc1 (stereo not shown) [Example 119] | – | 8 | 0 | 10
C=C(C)c1ccc(C(=O)c2cnn(C)c2OC(=O)SC)c(Cl)c1N=S1(=O)CCCCC1 [Example 207] | – | 7 | 0 | 6
C=C(C)c1ccc(C(=O)c2cnn(C)c2O)c(Cl)c1N=S1(=O)CCCCC1 [Example 204] | – | 7 | 0 | 5
CC(C)c1ccc(C(=O)C2=C(O)CCCC2=O)c(Cl)c1N=S1(=O)CCCCC1 [Example 209] | – | 6 | 0 | 7
COc1ccc(C(=O)c2cnn(C)c2OCc2ccc3ccccc3c2)c(OC)c1N=S1(=O)CCOCC1 [Example 134] | – | 8 | 0 | 5
COC(=O)c1ccc(C(=O)c2cnn(C)c2OC(=O)SC(C)C)c(Cl)c1N=S1(=O)CCCCC1 [Example 201] | – | 7 | 0 | 5
COc1ccc(C(=O)c2cnn(C)c2OCc2ccccc2)c(Cl)c1N=S1(=O)CCCCC1 [Example 107] | – | 7 | 0 | 7
COC(=O)n1cc(C(=O)c2ccc(OC)c(N=S3(=O)CCCCC3)c2Cl)c(=O)n1C [Example 105] | – | 8 | 0 | 10
COc1ccc(C(=O)c2c(C)nn(C)c2OCc2ccc3ccccc3c2)c(Cl)c1N=S1(=O)CCCCC1 [Example 253] | – | 8 | 0 | 6
COc1ccc(C(=O)c2cnn(C)c2OCc2ccc3ccccc3c2)c(Cl)c1N=S(C)(=O)Cc1ccccc1 (stereo not shown) [Example 121] | – | 7 | 0 | 7
COc1ccc(C(=O)c2cnn(C)c2OC(=O)c2ccccc2)c(Cl)c1N=S1(=O)CCCCC1 [Example 138] | – | 8 | 0 | 10
CCOc1ccc(C(=O)c2cnn(C)c2OC(=O)SC)c(OC)c1N=S1(=O)CCCCC1 [Example 177] | – | 7 | 0 | 5
COc1ccc(C(=O)C2=C(O)CCCC2=O)c(Cl)c1N=S(C)(=O)Cc1ccccc1 (stereo not shown) [Example 120] | – | 5 | 0 | 8
